Experimental data: paper PMC4595607, “mRNA export through an additional cap-binding complex consisting of NCBP1 and NCBP3” (Nature Communications, 2015)
Substitutions are numbered along the chain they refer to.

Experiments:
[1] = molecular target: T1, recombinant NCBP3 from E. coli lysates (Homo sapiens, UniProt Q53F19); experiment: affinity purification on m7GTP-agarose from E. coli lysate, western blot; type: biochemical; conditions: compound immobilised as γ-aminohexyl m7GTP-agarose
T1 construct: full-length, N-terminal His tag (pETG10A-NCBP3; MBP/His version also made), E. coli BL21-AI lysate
T1 sequence (Q53F19 1-620): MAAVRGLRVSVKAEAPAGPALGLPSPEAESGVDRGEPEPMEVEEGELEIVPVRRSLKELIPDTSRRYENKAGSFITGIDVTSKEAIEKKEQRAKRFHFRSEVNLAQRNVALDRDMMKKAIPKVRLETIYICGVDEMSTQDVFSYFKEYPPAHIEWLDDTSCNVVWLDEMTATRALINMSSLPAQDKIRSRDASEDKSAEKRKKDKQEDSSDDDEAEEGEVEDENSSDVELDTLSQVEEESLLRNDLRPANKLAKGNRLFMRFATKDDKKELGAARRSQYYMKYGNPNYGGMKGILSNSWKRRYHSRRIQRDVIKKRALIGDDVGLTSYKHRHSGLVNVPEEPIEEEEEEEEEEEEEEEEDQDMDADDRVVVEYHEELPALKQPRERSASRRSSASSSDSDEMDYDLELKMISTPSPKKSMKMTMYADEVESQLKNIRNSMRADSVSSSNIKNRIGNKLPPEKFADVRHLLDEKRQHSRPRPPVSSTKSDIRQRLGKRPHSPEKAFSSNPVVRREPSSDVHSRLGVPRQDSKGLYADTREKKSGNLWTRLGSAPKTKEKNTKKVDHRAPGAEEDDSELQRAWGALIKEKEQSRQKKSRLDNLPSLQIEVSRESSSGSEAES

[2] = molecular target: T2, NCBP3 (aa 1-282); C17orf85 (Homo sapiens, UniProt Q53F19, W155A/D157A/D158A); experiment: affinity purification on m7GTP-agarose, Coomassie SDS-PAGE; type: binding; conditions: compound immobilised as γ-aminohexyl m7GTP-agarose; WLDD motif mutant (ALAA)
T2 construct: N-terminal fragment 1-282 with core RRM; expressed in E. coli BL21-AI, purified; untagged for MST and CD (MBP/His construct cloned)
T2 sequence (Q53F19 1-282 W155A/D157A/D158A): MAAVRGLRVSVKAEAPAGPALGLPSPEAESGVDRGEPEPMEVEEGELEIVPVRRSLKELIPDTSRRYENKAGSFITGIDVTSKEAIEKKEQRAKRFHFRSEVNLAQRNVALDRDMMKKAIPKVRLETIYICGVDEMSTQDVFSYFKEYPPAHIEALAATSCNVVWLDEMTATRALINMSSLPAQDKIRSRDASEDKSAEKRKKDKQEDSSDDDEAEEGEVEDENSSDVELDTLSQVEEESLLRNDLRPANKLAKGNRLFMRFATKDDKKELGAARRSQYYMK

[3] = molecular target: T3, NCBP3 (aa 1-282); C17orf85 (Homo sapiens, UniProt Q53F19); experiment: as above; type: binding; conditions: compound immobilised as γ-aminohexyl m7GTP-agarose
T3 construct: N-terminal fragment 1-282 with core RRM; expressed in E. coli BL21-AI, purified; untagged for MST and CD (MBP/His construct cloned)
T3 sequence (Q53F19 1-282): T2 sequence (Q53F19 1-282 W155A/D157A/D158A) with A155W, A157D, A158D

[4] = system: NCBP3 1-282 (RRM fragment) (Homo sapiens); experiment: MST; conditions: 5' m7G cap (CAP0); 3' amino linker; MST: equal volumes of MST-1 (50 mM Tris-HCl pH 7.4, 150 mM NaCl, 10 mM MgCl2, 0.05% Tween-20; RNA 50 nM) and MST-2 (20 mM Tris-HCl pH 7.4, 300 mM NaCl, 5% …)

| Compound | affinity purification on m7GTP-agarose from E. coli lysate, western blot [1] | loss of binding [2] | affinity purification on m7GTP-agarose, Coomassie SDS-PAGE [3] | Kd [4] |
| --- | --- | --- | --- | --- |
| C[n+]1cn([C@@H]2O[C@H](COP(=O)(O)OP(=O)(O)OP(=O)(O)O)[C@@H](O)[C@H]2O)c2nc(N)[nH]c(=O)c21 [m^7GTP] | m^7GTP versus GTP-affinity purification and western blotting of recombinant NCBP3 from E. coli lysates | mutation of the NCBP3 WLDD motif to ALAA resulted in loss of binding | recombinant NCBP3 selectively bound m^7GTP but not GTP |  |
| CAP-RNA oligo (CAP0), DyLight |  |  |  | 15.8 µM |
